Patent US20190352288A1, “MATRIX METALLOPROTEINASE (MMP) INHIBITORS AND METHODS OF USE THEREOF” (Foresee Pharmaceuticals Co., Ltd., priority 2018, published 2019)

Assays:
Type in all cases: biochemical
Details in all cases: Table 2 selectivity profile
[1] = biological target: recombinant human MMP-13 (Homo sapiens, UniProt P45452); test: MMP selectivity assay, MMP-13
Method: (§1) The inhibitory effect of compounds on the rate of cleaving fluorogenic MMP substrate (Enzo, BML-P128) by recombinant human MMP-12 catalytic domain (Enzo, BML-SE138) was carried out by methods known in the art. Briefly, to each well of a 96-well black opaque plate, all the reagents were sequentially added by pipetting, and the final reaction contained 4 nM of recombinant human MMP-12 catalytic domain, 4 μM of fluorogenic MMP substrate, and various concentrations (0.15 nM to 10,000 nM) of tested compound dilutions in HEPES buffer (pH 7.5) containing 10 mM of CaCl2), 0.01% Brij® 35 (polyoxyethylene (23) lauryl ether), and 0.1 mg/ml of BSA.
(§2) The enzyme and compounds were pre-incubated on a shaker to mix in wells. After an hour of mixing, fluorogenic substrate was added to each well. Reaction without enzyme was used as a blank control in the plate. The plate was then fed into a plate reader to measure fluorescence intensity at Excitation/Emission wavelengths of 340 nm/440 nm every 10 mins for at least 1 hour at 37° C. The IC50 of each compound in MMP-12 inhibition was determined by using a readout obtained at time point 30 minutes.
(§3) The MMP selectivity assay was performed by using other recombinant human MMPs, including MMP-1, MMP-2, MMP-3, MMP-7, MMP-8, MMP-9, MMP-10, MMP-13, and MMP-14. The IC50 of the compounds for the other recombinant human MMPs was determined as described above in Example 1, and are shown in Table 2.

[2] = biological target: recombinant human MMP-10 (Homo sapiens, UniProt P09238); test: MMP selectivity assay, MMP-10
Method: as §1, §2, §3

[3] = biological target: recombinant human MMP-9 (Homo sapiens, UniProt P14780); test: MMP selectivity assay, MMP-9
Method: as §1, §2, §3

[4] = biological target: T1, recombinant human MMP-1 (Homo sapiens, UniProt P03956); test: MMP selectivity assay, MMP-1
T1 sequence (P03956 100-469): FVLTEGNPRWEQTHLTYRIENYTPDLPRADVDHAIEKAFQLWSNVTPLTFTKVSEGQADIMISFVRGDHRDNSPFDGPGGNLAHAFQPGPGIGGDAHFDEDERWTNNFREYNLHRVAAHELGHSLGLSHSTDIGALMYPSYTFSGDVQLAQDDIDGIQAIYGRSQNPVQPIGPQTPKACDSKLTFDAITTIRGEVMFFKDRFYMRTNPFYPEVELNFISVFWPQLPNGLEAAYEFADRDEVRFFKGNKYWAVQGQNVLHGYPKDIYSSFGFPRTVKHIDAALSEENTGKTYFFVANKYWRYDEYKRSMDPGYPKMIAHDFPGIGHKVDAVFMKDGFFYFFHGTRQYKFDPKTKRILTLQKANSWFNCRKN
Method: as §1, §2, §3

[5] = biological target: T2, recombinant human MMP-7 (Homo sapiens, UniProt P09237); test: MMP selectivity assay, MMP-7
T2 sequence (P09237 95-267): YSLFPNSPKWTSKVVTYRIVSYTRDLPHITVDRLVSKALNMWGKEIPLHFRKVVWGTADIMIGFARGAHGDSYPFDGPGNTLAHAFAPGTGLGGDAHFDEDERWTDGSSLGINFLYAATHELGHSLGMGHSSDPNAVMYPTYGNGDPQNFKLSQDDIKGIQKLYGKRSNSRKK
Method: as §1, §2, §3

[6] = biological target: recombinant human MMP-8 (Homo sapiens, UniProt P22894); test: MMP selectivity assay, MMP-8
Method: as §1, §2, §3

[7] = biological target: T3, recombinant human MMP-2 (Homo sapiens, UniProt P08253); test: MMP selectivity assay, MMP-2
T3 sequence (P08253 110-660): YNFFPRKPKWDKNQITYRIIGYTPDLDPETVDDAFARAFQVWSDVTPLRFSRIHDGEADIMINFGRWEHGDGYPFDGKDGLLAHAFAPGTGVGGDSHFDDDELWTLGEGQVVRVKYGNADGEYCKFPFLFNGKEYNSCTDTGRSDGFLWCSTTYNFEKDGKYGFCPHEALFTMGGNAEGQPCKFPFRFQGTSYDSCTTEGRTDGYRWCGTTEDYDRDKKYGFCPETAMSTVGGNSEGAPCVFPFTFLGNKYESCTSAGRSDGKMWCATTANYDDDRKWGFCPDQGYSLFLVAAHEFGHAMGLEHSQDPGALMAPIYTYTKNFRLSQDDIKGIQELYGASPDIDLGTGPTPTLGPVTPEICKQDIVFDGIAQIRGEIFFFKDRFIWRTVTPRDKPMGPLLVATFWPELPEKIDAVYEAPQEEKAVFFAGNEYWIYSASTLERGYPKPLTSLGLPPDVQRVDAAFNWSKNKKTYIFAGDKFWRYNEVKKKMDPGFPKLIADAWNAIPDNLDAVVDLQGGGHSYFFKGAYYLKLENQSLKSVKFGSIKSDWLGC
Method: as §1, §2, §3

[8] = biological target: recombinant human MMP-3 (Homo sapiens, UniProt P08254); test: MMP selectivity assay, MMP-3
Method: as §1, §2, §3

[9] = biological target: recombinant human MMP-14 (Homo sapiens, UniProt P50281); test: MMP selectivity assay, MMP-14
Method: as §1, §2, §3

Sequence of recombinant human MMP-10 (P09238 99-476): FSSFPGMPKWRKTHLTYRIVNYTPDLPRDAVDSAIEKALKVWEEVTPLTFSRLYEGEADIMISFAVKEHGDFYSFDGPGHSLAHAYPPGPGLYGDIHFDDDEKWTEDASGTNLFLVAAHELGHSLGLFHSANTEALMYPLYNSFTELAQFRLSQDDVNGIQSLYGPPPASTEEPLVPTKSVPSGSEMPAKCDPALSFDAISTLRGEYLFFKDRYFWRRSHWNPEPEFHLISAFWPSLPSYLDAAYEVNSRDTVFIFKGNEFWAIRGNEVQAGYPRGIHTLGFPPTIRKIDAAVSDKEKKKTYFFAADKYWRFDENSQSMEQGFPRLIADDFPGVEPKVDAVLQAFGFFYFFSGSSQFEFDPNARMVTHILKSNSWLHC
Sequence of recombinant human MMP-9 (P14780 94-707): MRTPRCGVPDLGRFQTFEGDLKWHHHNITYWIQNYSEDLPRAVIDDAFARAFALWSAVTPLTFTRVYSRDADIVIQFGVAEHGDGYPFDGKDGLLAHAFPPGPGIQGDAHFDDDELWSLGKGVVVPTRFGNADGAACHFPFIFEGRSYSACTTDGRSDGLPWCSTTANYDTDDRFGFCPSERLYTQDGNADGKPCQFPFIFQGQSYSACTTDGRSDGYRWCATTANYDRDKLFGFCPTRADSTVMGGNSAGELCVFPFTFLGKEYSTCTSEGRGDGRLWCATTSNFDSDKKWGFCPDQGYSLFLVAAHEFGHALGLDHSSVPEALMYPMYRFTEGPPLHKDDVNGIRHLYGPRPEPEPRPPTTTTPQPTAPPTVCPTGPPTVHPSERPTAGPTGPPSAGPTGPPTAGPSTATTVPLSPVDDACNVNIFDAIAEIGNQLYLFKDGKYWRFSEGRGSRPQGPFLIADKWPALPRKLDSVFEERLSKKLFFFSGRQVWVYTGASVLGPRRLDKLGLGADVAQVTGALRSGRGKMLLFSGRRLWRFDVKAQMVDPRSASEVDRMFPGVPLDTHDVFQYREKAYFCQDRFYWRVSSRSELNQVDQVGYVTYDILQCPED
Sequence of recombinant human MMP-3 (P08254 100-477): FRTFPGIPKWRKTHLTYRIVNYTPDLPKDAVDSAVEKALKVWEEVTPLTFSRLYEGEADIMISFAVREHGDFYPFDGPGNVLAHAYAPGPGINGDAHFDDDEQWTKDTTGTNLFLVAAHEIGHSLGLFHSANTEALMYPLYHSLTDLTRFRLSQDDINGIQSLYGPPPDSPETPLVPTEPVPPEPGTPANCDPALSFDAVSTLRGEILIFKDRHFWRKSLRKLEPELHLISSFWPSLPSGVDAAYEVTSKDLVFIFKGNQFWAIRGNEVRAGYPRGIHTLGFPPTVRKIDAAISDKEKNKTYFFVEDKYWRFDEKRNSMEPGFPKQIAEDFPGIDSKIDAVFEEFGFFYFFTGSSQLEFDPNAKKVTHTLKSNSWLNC
Sequence of recombinant human MMP-8 (P22894 101-467): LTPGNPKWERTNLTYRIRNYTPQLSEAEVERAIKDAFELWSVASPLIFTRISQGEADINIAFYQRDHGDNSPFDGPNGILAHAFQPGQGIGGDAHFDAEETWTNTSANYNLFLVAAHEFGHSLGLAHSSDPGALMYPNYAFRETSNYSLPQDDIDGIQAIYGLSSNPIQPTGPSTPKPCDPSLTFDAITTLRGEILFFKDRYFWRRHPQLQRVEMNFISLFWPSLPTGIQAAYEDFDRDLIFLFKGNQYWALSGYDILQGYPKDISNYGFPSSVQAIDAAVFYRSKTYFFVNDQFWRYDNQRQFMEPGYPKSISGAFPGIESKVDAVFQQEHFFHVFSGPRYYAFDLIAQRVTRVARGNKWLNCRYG

SMILES | IC50 [1] [nM] | IC50 [2] [nM] | IC50 [3] [nM] | IC50 [4] [nM] | IC50 [5] [nM] | IC50 [6] [nM] | IC50 [7] [nM] | IC50 [8] [nM] | IC50 [9] [nM]
Cc1cc(COc2ccc(Sc3ncoc3C3NC(=O)NC3=O)cc2)ccn1 (stereo not drawn) [OC-7] | 100 to 1000 | 1000 to 10000 | 1000 to 10000 | > 10000 | > 10000 | 100 to 1000 | 100 to 1000 | 1000 to 10000 | > 10000
Cc1cc(COc2ccc(Sc3cnn(C)c3C3NC(=O)NC3=O)cc2)ccn1 (stereo not drawn) [OC-12] | 100 to 1000 | 1000 to 10000 | 1000 to 10000 | > 10000 | > 10000 | 100 to 1000 | 100 to 1000 | 1000 to 10000 | 1000 to 10000
Cc1cc(COc2ccc(Sc3ncn(C)c3C3NC(=O)NC3=O)cc2)ccn1 (stereo not drawn) [OC-13] | 100 to 1000 | 1000 to 10000 | 1000 to 10000 | > 10000 | > 10000 | 100 to 1000 | 100 to 1000 | 1000 to 10000 | 100 to 1000
O=C1NC(=O)C(c2cnccc2Sc2ccc(OCc3cccc(CO)c3)cc2)N1 (stereo not drawn) [PC-8] | 1000 to 10000 | > 10000 | > 10000 | > 10000 | > 10000 | > 10000 | 1000 to 10000 | 1000 to 10000 | > 10000
O=C1NC(=O)C(c2cnccc2Sc2ccc(OCc3cccc(O)c3)cc2)N1 (stereo not drawn) [PC-10] | 1000 to 10000 | > 10000 | 1000 to 10000 | > 10000 | > 10000 | 1000 to 10000 | 1000 to 10000 | 1000 to 10000 | > 10000
O=C1NC(=O)C(c2ccncc2Sc2ccc(OCc3ccccc3CO)cc2)N1 (stereo not drawn) [PC-12] | > 10000 | 1000 to 10000 | 1000 to 10000 | > 10000 | > 10000 | 1000 to 10000 | 1000 to 10000 | 100 to 1000 | > 10000
O=C1NC(=O)C(c2ccncc2Sc2ccc(OCc3cccc(CO)c3)cc2)N1 (stereo not drawn) [PC-13] | 1000 to 10000 | 1000 to 10000 | 1000 to 10000 | > 10000 | > 10000 | 1000 to 10000 | 1000 to 10000 | 100 to 1000 | > 10000
CCC1(c2cnccc2Sc2ccc(OCc3cccc(C)c3)cc2)NC(=O)NC1=O (stereo not drawn) [PC-22] | 100 to 1000 | 1000 to 10000 | 1000 to 10000 | > 10000 | > 10000 | 1000 to 10000 | 1000 to 10000 | 100 to 1000 | 1000 to 10000
NC(=O)c1cccc(COc2ccc(Sc3ccncc3C3NC(=O)NC3=O)cc2)c1 (stereo not drawn) [PC-28] | 100 to 1000 | 1000 to 10000 | 1000 to 10000 | > 10000 | > 10000 | 100 to 1000 | 1000 to 10000 | 1000 to 10000 | 1000 to 10000
Cc1cc(COc2ccc(Sc3ccncc3C3NC(=O)NC3=O)cc2C)ccn1 (stereo not drawn) [PC-48] | 100 to 1000 | 1000 to 10000 | 1000 to 10000 | > 10000 | > 10000 | 1000 to 10000 | 1000 to 10000 | 1000 to 10000 | > 10000
Cc1cc(COc2ccc(Sc3ccncc3C3NC(=O)NC3=O)c(F)c2)ccn1 (stereo not drawn) [PC-50] | 100 to 1000 | 1000 to 10000 | 1000 to 10000 | > 10000 | > 10000 | 100 to 1000 | 100 to 1000 | 100 to 1000 | 1000 to 10000
Cc1cc(COc2ccc(Sc3ccncc3C3NC(=O)NC3=O)c(Cl)c2)ccn1 (stereo not drawn) [PC-51] | 100 to 1000 | 1000 to 10000 | 1000 to 10000 | > 10000 | 1000 to 10000 | 100 to 1000 | 1000 to 10000 | 1000 to 10000 | 1000 to 10000
O=C1NC(=O)C(c2sccc2Sc2ccc(OCc3cccc(CO)c3)cc2)N1 (stereo not drawn) [TC4] | 1000 to 10000 | 1000 to 10000 | 1000 to 10000 | > 10000 | > 10000 | 100 to 1000 | 1000 to 10000 | 100 to 1000 | 1000 to 10000
O=C1NC(=O)C(c2sccc2Sc2ccc(OCc3ccccc3CO)cc2)N1 (stereo not drawn) [TC5] | > 10000 | 1000 to 10000 | 1000 to 10000 | > 10000 | > 10000 | 1000 to 10000 | 1000 to 10000 | 1000 to 10000 | > 10000
Cc1cc(COc2ccc(Sc3ccsc3C3NC(=O)NC3=O)cc2)ccn1 (stereo not drawn) [TC8] | 10 to 100 | 100 to 1000 | 100 to 1000 | > 10000 | 1000 to 10000 | 10 to 100 | 100 to 1000 | 100 to 1000 | 100 to 1000
